Assay results from patent US8129371B2, “Thienopyrimidine and pyrazolopyrimidine compounds and their use as mTOR kinase and PI3 kinase inhibitors” (Wyeth LLC, priority 2007, dated 2012).
pIC50: −log10 of the molar value. Like-named read-outs stand apart in the source and are kept apart here.

Columns and labels:
Human mTOR (FLAG-TOR) = biological target: T1, Human mTOR (FLAG-TOR) (Homo sapiens, UniProt P42345); test: Human mTOR kinase assay with purified enzyme, DELFIA format; assay type: biochemical
T1 construct: FLAG
Procedure, shortened: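 Purified FLAG-mTOR in HEPES pH 7.4 buffer with 10 mM MnCl2 was preincubated with inhibitor and reacted 2 h at room temperature with His6-S6K substrate, then stopped with EDTA/EGTA. Phospho-T389 S6K detected by DELFIA with Eu-labelled antibody (40 ng/mL) after plate capture; inhibition computed from signal.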

breast line MDA468 = test: In vitro cell culture growth assay (MTS), MDA468; assay type: cell-based; conditions: Homo sapiens, 72 h, MDA468 cells, three days after drug treatment
Procedure, shortened: (§1)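 The readout was MTS dye metabolism at 490 nm, taken after 3-day drug exposure that began the day after seeding. Growth was expressed as percent of vehicle-treated wells in the same plate.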

PI3K [1] = biological target: T2, PI3K (Homo sapiens, UniProt P42336); test: Fluorescence polarization assay for PI3K; assay type: biochemical; conditions: read-out: PI3 Kinase α IC50
T2 construct: PI3 Kinase α IC50; other: PI3 Kinase α; other: PI3 Kinase α isoform, fluorescence polarization
T2 sequence (P42336 whole entry, canonical isoform): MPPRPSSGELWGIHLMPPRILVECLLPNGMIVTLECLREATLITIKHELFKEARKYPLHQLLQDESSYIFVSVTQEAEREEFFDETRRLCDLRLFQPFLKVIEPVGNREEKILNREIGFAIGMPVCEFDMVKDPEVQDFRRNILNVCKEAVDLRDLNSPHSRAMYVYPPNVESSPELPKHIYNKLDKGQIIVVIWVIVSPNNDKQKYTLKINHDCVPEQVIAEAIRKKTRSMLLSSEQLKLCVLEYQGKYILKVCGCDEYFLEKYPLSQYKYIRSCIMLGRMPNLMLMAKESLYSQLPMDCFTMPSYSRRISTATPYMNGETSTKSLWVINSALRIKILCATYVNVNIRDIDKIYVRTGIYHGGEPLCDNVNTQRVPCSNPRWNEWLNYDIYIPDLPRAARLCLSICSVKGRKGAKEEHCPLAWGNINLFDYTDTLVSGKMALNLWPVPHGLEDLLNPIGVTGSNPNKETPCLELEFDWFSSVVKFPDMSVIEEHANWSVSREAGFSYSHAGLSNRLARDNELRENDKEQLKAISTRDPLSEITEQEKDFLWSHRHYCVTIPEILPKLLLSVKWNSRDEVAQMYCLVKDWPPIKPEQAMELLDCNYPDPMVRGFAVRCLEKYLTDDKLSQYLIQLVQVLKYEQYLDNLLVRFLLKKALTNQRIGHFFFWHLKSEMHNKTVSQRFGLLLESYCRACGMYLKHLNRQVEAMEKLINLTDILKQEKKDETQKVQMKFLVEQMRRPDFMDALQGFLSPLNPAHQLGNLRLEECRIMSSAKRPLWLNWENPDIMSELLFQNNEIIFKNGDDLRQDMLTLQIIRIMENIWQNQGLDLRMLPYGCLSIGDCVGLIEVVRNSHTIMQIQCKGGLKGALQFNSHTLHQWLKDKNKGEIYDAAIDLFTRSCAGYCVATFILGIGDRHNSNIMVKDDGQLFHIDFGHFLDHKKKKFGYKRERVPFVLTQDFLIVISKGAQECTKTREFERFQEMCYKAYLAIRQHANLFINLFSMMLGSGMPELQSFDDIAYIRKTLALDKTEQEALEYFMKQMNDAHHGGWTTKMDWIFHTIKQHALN
Procedure, shortened: (§2)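 PI3K was preincubated with compound (final DMSO 1%), and the reaction was started with PIP2/ATP substrate and run 30–60 min. It was stopped with a detector mix giving 10 nM red probe and 70 nM GST-GRP.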

PI3K [2] = biological target: T3, PI3K (Homo sapiens, UniProt P48736); test: Fluorescence polarization assay for PI3K; assay type: biochemical; conditions: read-out: PI3 Kinase γ IC50
T3 construct: PI3 Kinase γ IC50; other: PI3 Kinase γ; other: PI3 Kinase γ isoform, fluorescence polarization
T3 sequence (P48736 whole entry, canonical isoform): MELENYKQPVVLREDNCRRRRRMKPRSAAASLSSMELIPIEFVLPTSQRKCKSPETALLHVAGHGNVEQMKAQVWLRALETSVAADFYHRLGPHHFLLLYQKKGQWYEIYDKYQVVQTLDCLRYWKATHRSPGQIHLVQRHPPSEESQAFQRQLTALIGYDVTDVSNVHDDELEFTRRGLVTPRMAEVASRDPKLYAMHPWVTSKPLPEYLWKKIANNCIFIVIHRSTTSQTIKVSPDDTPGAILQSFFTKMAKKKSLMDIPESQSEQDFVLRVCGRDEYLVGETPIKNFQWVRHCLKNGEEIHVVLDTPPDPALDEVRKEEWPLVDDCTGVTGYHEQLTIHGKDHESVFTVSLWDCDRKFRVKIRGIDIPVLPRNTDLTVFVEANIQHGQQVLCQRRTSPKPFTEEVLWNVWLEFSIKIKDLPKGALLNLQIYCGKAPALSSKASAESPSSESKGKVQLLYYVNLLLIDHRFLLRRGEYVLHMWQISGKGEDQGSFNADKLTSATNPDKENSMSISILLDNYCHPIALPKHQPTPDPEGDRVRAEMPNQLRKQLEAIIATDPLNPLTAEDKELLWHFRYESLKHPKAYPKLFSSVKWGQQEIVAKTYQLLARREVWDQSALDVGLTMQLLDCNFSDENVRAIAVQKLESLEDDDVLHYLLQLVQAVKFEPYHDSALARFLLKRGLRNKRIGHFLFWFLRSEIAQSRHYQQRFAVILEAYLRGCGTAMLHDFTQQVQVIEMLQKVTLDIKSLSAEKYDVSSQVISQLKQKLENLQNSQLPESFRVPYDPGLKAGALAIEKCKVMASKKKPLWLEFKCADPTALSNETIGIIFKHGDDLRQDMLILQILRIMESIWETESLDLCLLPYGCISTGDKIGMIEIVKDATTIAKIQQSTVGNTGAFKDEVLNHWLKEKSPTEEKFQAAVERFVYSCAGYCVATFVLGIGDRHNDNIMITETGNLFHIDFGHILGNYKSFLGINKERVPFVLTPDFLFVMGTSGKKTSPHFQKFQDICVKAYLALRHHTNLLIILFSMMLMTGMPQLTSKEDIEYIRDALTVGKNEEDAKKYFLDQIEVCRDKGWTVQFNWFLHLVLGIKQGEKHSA
Procedure, shortened: as §2

prostate line LNCap = test: In vitro cell culture growth assay (MTS), LNCap; assay type: cell-based; conditions: Homo sapiens, LNCaP, 72 h, LNCap cells, three days after drug treatment
Procedure, shortened: as §1

[3] = purified human mTOR enzyme, DELFIA format
[4] = PI3 Kinase α isoform, fluorescence polarization
[5] = PI3 Kinase γ isoform, fluorescence polarization

pIC50 (Human mTOR (FLAG-TOR); [3])	pIC50 (PI3K [1]; [4])	pIC50 (PI3K [2]; [5])	pIC50 (prostate line LNCap)	pIC50 (Human mTOR (FLAG-TOR))	pIC50 (PI3K [1]; PI3 Kinase α)	pIC50 (PI3K [2]; PI3 Kinase γ)	SMILES	pIC50 (breast line MDA468)
8.56	6.18	< 5.00	> 9.00				COCC(COC)n1ncc2c(N3CC4CCC(C3)O4)nc(-c3ccc(NC(=O)Nc4ccc(C(=O)NN(C)C)cc4)cc3)nc21 [Example 336, 1-{4-[(2,2-dimethylhydrazino)carbonyl]phenyl}-3-(4-{1-[2-methoxy-1-(methoxymethyl)ethyl]-4-(8-oxa-3-azabicyclo[3.2.1]oct-3-yl)-1H-pyrazolo[3,4-d]pyrimidin-6-yl}phenyl)urea]	8.40
			7.59	9.68	5.74	< 5.00	CNC(=O)Nc1ccc(-c2nc(N3CC4CCC(C3)O4)c3cnn(C4CCN(C(=O)OC)CC4)c3n2)cc1 [Example 7, methyl 4-[6-{4-[(methylcarbamoyl)amino]phenyl}-4-(8-oxa-3-azabicyclo[3.2.1]oct-3-yl)-1H-pyrazolo[3,4-d]pyrimidin-1-yl]piperidine-1-carboxylate]	7.10
			8.40	9.32	7.13	5.78	CN1CCN(c2ccc(NC(=O)Nc3ccc(-c4nc(N5CC6CCC(C5)O6)c5cnn(CCC#N)c5n4)cc3)cc2)CC1 [Example 220, 1-{4-[1-(2-cyanoethyl)-4-(8-oxa-3-azabicyclo[3.2.1]oct-3-yl)-1H-pyrazolo[3,4-d]pyrimidin-6-yl]phenyl}-3-[4-(4-methylpiperazin-1-yl)phenyl]urea]	8.00
6.10	5.02	< 5.00	5.53				O=CN1CC2CN(c3nc(-c4ccc(NC(=O)Nc5ccncc5)cc4)nc4c3cnn4CC(F)(F)F)CC(C1)O2 [Example 338, 1-{4-[4-(7-formyl-9-oxa-3,7-diazabicyclo[3.3.1]non-3-yl)-1-(2,2,2-trifluoroethyl)-1H-pyrazolo[3,4-d]pyrimidin-6-yl]phenyl}-3-pyridin-4-ylurea]	5.73
9.31	5.34	< 5.00	8.15				O=C(Nc1ccc(-c2nc(N3CC4CCC(C3)O4)c3cnn(C4CCC5(CCCO5)CC4)c3n2)cc1)NC1CC1 (single isomer, unassigned) [Example 316, 1-cyclopropyl-3-(4-{4-(8-oxa-3-azabicyclo[3.2.1]oct-3-yl)-1-[(5r,8r)-1-oxaspiro[4.5]dec-8-yl]-1H-pyrazolo[3,4-d]pyrimidin-6-yl}phenyl)urea]	6.80
			6.96	9.02	6.26	< 5.00	CNC(=O)Nc1ccc(-c2nc(N3CC4CCC(C3)O4)c3cnn(CCF)c3n2)cc1 [Example 241, 1-{4-[1-(2-fluoroethyl)-4-(8-oxa-3-azabicyclo[3.2.1]oct-3-yl)-1H-pyrazolo[3,4-d]pyrimidin-6-yl]phenyl}-3-methylurea]	6.64
			> 9.00	9.32	6.93	6.06	COC(=O)N1CCC(n2ncc3c(N4CC5CCC(C4)O5)nc(-c4ccc(NC(=O)Nc5ccc(N6CCN(C)CC6)cc5)cc4)nc32)CC1 [Example 166, methyl 4-{6-[4-({[4-(4-methylpiperazin-1-yl)phenyl]carbamoyl}amino)phenyl]-4-(8-oxa-3-azabicyclo[3.2.1]oct-3-yl)-1H-pyrazolo[3,4-d]pyrimidin-1-yl}piperidine-1-carboxylate]	8.70
			7.22	9.52	6.34	5.42	CC(C)C(=O)N1CCC(n2ncc3c(N4CC5CCC(C4)O5)nc(-c4ccc(NC(=O)Nc5cccnc5)cc4)nc32)CC1 [Example 88, 1-{4-[1-(1-isobutyrylpiperidin-4-yl)-4-(8-oxa-3-azabicyclo[3.2.1]oct-3-yl)-1H-pyrazolo[3,4-d]pyrimidin-6-yl]phenyl}-3-pyridin-3-ylurea]	6.89
9.47	6.78	5.70	> 9.00				CN1CCN(c2ccc(NC(=O)Nc3ccc(-c4nc(N5CC6CCC(C5)O6)c5cnn(C6CCC(=O)CC6)c5n4)cc3)cc2)CC1 [Example 400, 1-[4-(4-methylpiperazin-1-yl)phenyl]-3-{4-[4-(8-oxa-3-azabicyclo[3.2.1]oct-3-yl)-1-(4-oxocyclohexyl)-1H-pyrazolo[3,4-d]pyrimidin-6-yl]phenyl}urea]	> 9.00
			7.82	9.59	6.52	5.62	CC(C)C(=O)N1CCC(n2ncc3c(N4CC5CCC(C4)O5)nc(-c4ccc(NC(=O)Nc5ccncc5)cc4)nc32)CC1 [Example 89, 1-{4-[1-(1-isobutyrylpiperidin-4-yl)-4-(8-oxa-3-azabicyclo[3.2.1]oct-3-yl)-1H-pyrazolo[3,4-d]pyrimidin-6-yl]phenyl}-3-pyridin-4-ylurea]	7.20
8.76	6.48	5.51	9.00				O=C(Nc1ccc(-c2nc(N3C[C@@H]4C[C@H]3CO4)c3cnn(CC(F)(F)F)c3n2)cc1)Nc1ccc(N2CCNCC2)cc1 [Example 393, 1-(4-{4-[(1S,4S)-2-oxa-5-azabicyclo[2.2.1]hept-5-yl]-1-(2,2,2-trifluoroethyl)-1H-pyrazolo[3,4-d]pyrimidin-6-yl}phenyl)-3-(4-piperazin-1-ylphenyl)urea]	7.85
			7.43	9.39	6.79	5.84	CCn1ncc2c(N3CC4CCC(C3)O4)nc(-c3ccc(NC(=O)Nc4ccc(N)nc4)cc3)nc21 [Example 287, 1-(6-aminopyridin-3-yl)-3-{4-[1-ethyl-4-(8-oxa-3-azabicyclo[3.2.1]oct-3-yl)-1H-pyrazolo[3,4-d]pyrimidin-6-yl]phenyl}urea]	6.70
			5.55	< 6.10	5.09	< 5.00	COC(=O)N1CCC(n2ncc3c(N4CC5CCC(C4)O5)nc(-c4ccc(NC(=O)OCCN5CCN(C)CC5)cc4)nc32)CC1 [Example 118, methyl 4-{6-[4-({[2-(4-methylpiperazin-1-yl)ethoxy]carbonyl}amino)phenyl]-4-(8-oxa-3-azabicyclo[3.2.1]oct-3-yl)-1H-pyrazolo[3,4-d]pyrimidin-1-yl}piperidine-1-carboxylate]	5.33
			9.05	9.80	6.31	5.69	COC(=O)N1CCC(n2ncc3c(N4CC5CCC(C4)O5)nc(-c4ccc(NC(=O)Nc5ccncc5)cc4)nc32)CC1 [Example 14, methyl 4-[4-(8-oxa-3-azabicyclo[3.2.1]oct-3-yl)-6-{4-[(pyridin-4-ylcarbamoyl)amino]phenyl}-1H-pyrazolo[3,4-d]pyrimidin-1-yl]piperidine-1-carboxylate]	7.72
			7.30	9.41	7.04	5.66	O=C(Nc1ccncc1)Nc1ccc(-c2nc(N3CC4CCC(C3)O4)c3cnn(CCO)c3n2)cc1 [Example 200, 1-{4-[1-(2-hydroxyethyl)-4-(8-oxa-3-azabicyclo[3.2.1]oct-3-yl)-1H-pyrazolo[3,4-d]pyrimidin-6-yl]phenyl}-3-pyridin-4-ylurea]	7.30
